# Measured values: PubChem BioAssay (NCI)
#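 96-well plates; 48 h exposure; 5 concentrations. Endpoints by linear interpolation between flanking doses. Not reached: highest tested concentration assigned. TGI: total growth inhibition.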
# Tests used:
# Assay in all cases: growth of human tumour cells (NCI), 48 h
# A549 NSCLC = tested on: A549 NSCLC
# ACHN renal = tested on: ACHN renal
# DU-145 prostate = tested on: DU-145 prostate
# LOX IMVI melanoma = tested on: LOX IMVI melanoma
# MOLT-4 leukemia = tested on: MOLT-4 leukemia
# NCI-H226 lung = tested on: NCI-H226 lung
# NCI-H23 lung = tested on: NCI-H23 lung
# NCI/ADR-RES ovarian = tested on: NCI/ADR-RES ovarian
# OVCAR-4 ovarian = tested on: OVCAR-4 ovarian
# SF-295 CNS = tested on: SF-295 CNS
# SNB-19 CNS = tested on: SNB-19 CNS
# SNB-75 CNS = tested on: SNB-75 CNS
# SR leukemia = tested on: SR leukemia
# SW-620 colon = tested on: SW-620 colon
# T-47D breast = tested on: T-47D breast
# A498 renal = tested on: A498 renal
# HOP-92 NSCLC = tested on: HOP-92 NSCLC
# MDA-MB-435 = tested on: MDA-MB-435
# HS 578T breast = tested on: HS 578T breast
Compound,TGI (A549 NSCLC) [µM],TGI (ACHN renal) [µM],TGI (DU-145 prostate) [µM],TGI (LOX IMVI melanoma) [µM],TGI (MOLT-4 leukemia) [µM],TGI (NCI-H226 lung) [µM],TGI (NCI-H23 lung) [µM],TGI (NCI/ADR-RES ovarian) [µM],TGI (OVCAR-4 ovarian) [µM],TGI (SF-295 CNS) [µM],TGI (SNB-19 CNS) [µM],TGI (SNB-75 CNS) [µM],TGI (SR leukemia) [µM],TGI (SW-620 colon) [µM],TGI (T-47D breast) [µM],TGI (A498 renal) [µM],TGI (HOP-92 NSCLC) [µM],TGI (MDA-MB-435) [µM],TGI (HS 578T breast) [µM]
Cc1cc(C2(O)C=C(C(C)(C)C)C(=O)C(C(C)(C)C)=C2)c(C)cc1C1(O)C=C(C(C)(C)C)C(=O)C(C(C)(C)C)=C1,> 100,> 100,> 100,> 100,> 100,> 100,> 100,> 100,> 100,> 100,> 100,> 100,> 100,> 100,> 100,,,,
CCCCCCCCCCCCCCCCCC(=O)O[C@H](COC(=O)CCCCCCCCCCC)COC(=O)CCCCCCCCCCCCCCC,> 100,> 100,,> 100,> 100,> 100,> 100,,> 100,> 100,> 100,,> 100,> 100,,> 100,> 100,,
COC(=O)[C@@H]1CCCN1CCN1CCC[C@H]1C(=O)OC,> 100,> 100,> 100,,> 100,,> 100,> 100,> 100,> 100,> 100,,86.6,> 100,> 100,> 100,> 100,> 100,
CN(C)Cc1cc(C(=O)/C=C/c2ccccc2Cl)cc(CN(C)C)c1O,38.7,16.3,24.8,13.5,59.8,48.2,35,63.6,,28.3,27.2,19.7,35.5,17,,29.5,39.6,26.3,46.3
Nc1ccc(N=Nc2ccccc2)cc1,> 100,> 100,,> 100,> 100,> 100,> 100,> 100,> 100,57.1,> 100,56,> 100,> 100,,> 100,> 100,> 100,> 100
CC(=O)OC1CC2C(C)(C)OC(=O)CC(OC(C)=O)[C@]2(C)C2CCC3(C)C(=CCC3[C@H]3COC(=O)C3)[C@]12C (some centres undefined),> 100,> 100,,> 100,89.5,> 100,> 100,,> 100,> 100,> 100,> 100,78.1,> 100,,> 100,> 100,,
O=C1Nc2c(ccc(Cl)c2I)C1=O,> 100,29,,37,40.1,46.4,30.7,,31.6,36.5,> 100,,42.2,45.6,,,,,
COc1ccc(O)cc1,> 100,> 100,,> 100,> 100,> 100,> 100,,> 100,,> 100,> 100,> 100,> 100,,> 100,> 100,,
NCCSc1nc2ccccc2c(=O)n1-c1ccccc1,> 100,> 100,,> 100,,> 100,> 100,> 100,> 100,> 100,57.1,> 100,> 100,> 100,> 100,> 100,65.5,> 100,
COC(=O)C1=CC(=O)OC1(OO)c1ccccc1 (centres undefined),> 100,> 100,> 100,> 100,> 100,> 100,> 100,> 100,> 100,> 100,> 100,> 100,> 100,> 100,> 100,,> 100,> 100,
CCCC(C)NC1=C(NC(C)=O)C(=O)c2ccccc2C1=O (centres undefined),> 100,> 100,,> 100,> 100,> 100,> 100,,> 100,> 100,> 100,> 100,> 100,> 100,,,> 100,,
O=C1c2ccccc2CCCCCCCCCCC12OCCCO2,91.9,> 100,,84.8,43.8,97.2,> 100,,> 100,> 100,77.5,> 100,,,,97.5,,,
Cc1cn(C(Cc2ccccc2)OCCO)c(=O)[nH]c1=O (centres undefined),> 100,> 100,> 100,> 100,> 100,> 100,> 100,> 100,> 100,> 100,> 100,> 100,> 100,> 100,> 100,> 100,> 100,> 100,
C1CCC2C(C1)CCCC2NC1=NCCO1 (centres undefined),> 100,> 100,> 100,> 100,> 100,> 100,> 100,> 100,> 100,> 100,> 100,> 100,> 100,> 100,> 100,> 100,,> 100,
O=C1OC2(OC2c2ccccc2)c2ccccc21 (centres undefined),> 100,> 100,,> 100,> 100,> 100,> 100,,,,> 100,> 100,> 100,> 100,,,> 100,,
NC1=NS(=O)(=O)Nc2nc(-c3ccc(Cl)cc3)c(-c3ccc(Cl)cc3)nc21,> 100,> 100,,> 100,> 100,,> 100,,> 100,> 100,> 100,> 100,> 100,> 100,,,> 100,,

Compound,TGI (A549 NSCLC) [µM],TGI (ACHN renal) [µM],TGI (DU-145 prostate) [µM],TGI (LOX IMVI melanoma) [µM],TGI (MOLT-4 leukemia) [µM],TGI (NCI-H226 lung) [µM],TGI (NCI-H23 lung) [µM],TGI (NCI/ADR-RES ovarian) [µM],TGI (OVCAR-4 ovarian) [µM],TGI (SF-295 CNS) [µM],TGI (SNB-19 CNS) [µM],TGI (SNB-75 CNS) [µM],TGI (SR leukemia) [µM],TGI (SW-620 colon) [µM],TGI (T-47D breast) [µM],TGI (A498 renal) [µM],TGI (HOP-92 NSCLC) [µM],TGI (MDA-MB-435) [µM],TGI (HS 578T breast) [µM]
O=C(Cc1ccccc1)NN1C(=O)C(Cl)C1c1ccc(O)cc1 (centres undefined),> 100,> 100,,> 100,> 100,> 100,> 100,,,> 100,> 100,> 100,> 100,> 100,,,,,
NC1=NS(=O)(=O)Nc2nc(-c3ccc([N+](=O)[O-])o3)[nH]c21,> 100,30.5,,29.4,41,,39.4,,31.3,29.8,35.9,30.3,,35.4,,> 100,27.1,,
CCOC(=O)c1ccc(N2C(=S)N(C(=O)c3ccccc3)C(=Nc3ccccc3)C2=Nc2ccccc2)cc1,> 100,> 100,> 100,,,52.7,> 100,> 100,,> 100,> 100,74.6,> 100,> 100,,,78.7,> 100,> 100
O=C1c2ccc3c4ccccc4n(Cc4ccccc4)c3c2C(=O)N1c1ccccc1,34.9,> 50.5,,31.4,9.54,29.7,17.6,,23.1,28.3,42.3,27.7,22.1,20.1,,45.9,26.9,,
Cc1ccc2c(c1)[nH]c1cc(C(F)(F)F)ccc1[p+]2=O (centres undefined),> 100,> 100,> 100,> 100,52,70.5,> 100,> 100,79.2,81.9,76.7,55.9,> 100,> 100,> 100,74.5,54.5,> 100,
CNC(=O)Oc1ccc(-c2cn3cc(OC(=O)NC)ccc3n2)cc1,> 100,> 100,> 100,> 100,> 100,> 100,> 100,> 100,> 100,> 100,> 100,> 100,> 100,> 100,> 100,> 100,> 100,> 100,
CN1NC(=Nc2ccccc2)Sc2c1cnn(-c1ccccc1)c2=O,> 100,> 100,,> 100,> 100,,> 100,,> 100,> 100,> 100,,,> 100,,> 100,> 100,,
CC(C)C(=O)/C=C/c1ccc(Br)cc1,65.5,25.4,,32.1,95.9,,38.2,,63.3,29.9,29.8,32.8,53.6,23.1,,28,30.9,,
CC(=O)Nc1cc2c(s1)CCC1CC(=O)NN=C21 (centres undefined),> 100,> 100,,> 100,> 100,> 100,> 100,,> 100,> 100,> 100,> 100,> 100,> 100,,,,,
O=C1c2ccccc2C(=O)N1Cc1ccccc1-c1c2nc(c(-c3ccccc3CN3C(=O)c4ccccc4C3=O)c3ccc([nH]3)c(-c3ccccc3CN3C(=O)c4ccccc4C3=O)c3nc(c(-c4ccccc4CN4C(=O)c5ccccc5C4=O)c4ccc1[nH]4)C=C3)C=C2,> 100,> 100,,> 100,> 100,> 100,> 100,,> 100,> 100,,> 100,> 100,> 100,,> 100,> 100,,
Nn1c(CCCCCCCCc2nnc(COc3ccc(Cl)cc3)n2N)nnc1COc1ccc(Cl)cc1,> 100,> 100,> 100,,> 100,> 100,> 100,> 100,> 100,> 100,> 100,> 100,,> 100,,> 100,> 100,> 100,
O=C(CSc1nnc(Cc2ccccc2)o1)Nc1ccc([N+](=O)[O-])cc1,> 100,> 100,,> 100,> 100,> 100,> 100,,> 100,> 100,,> 100,,,,> 100,,,
COc1cc2cccc(N=Cc3cccc(OC)c3OC(C)C)c2cc1OC,86.5,> 100,,,69.5,,57.2,,52.4,41.2,,49,,48.8,,> 100,,,
COC(=O)N/N=C(\C)C(CN1CCCCC1)C(C1=C(O)c2ccccc2OC1)c1ccccc1 (centres undefined),> 100,> 100,,> 100,> 100,> 100,> 100,,> 100,> 100,> 100,> 100,> 100,> 100,,> 100,,,
c1cc2nnnn2nc1N1CCCC1,> 100,> 100,> 100,> 100,> 100,> 100,> 100,> 100,> 100,> 100,> 100,,> 100,> 100,,> 100,> 100,> 100,
